Measurements: US9474275B2, “Cyanoenamines and their use as fungicides” (priority 2010, dated 2016)
Read-outs that look alike come from different tables or passages of the source. Marks after values point to notes of the source that are not given here.

How the values were obtained:
[1] = tested on: Plasmopara viticola; assay: Plasmopara test (grapevines) / preventive; assay type: in vivo; details: grapevine plants, preventive spray, 100 ppm of active ingredient, evaluated 6 days after inoculation; 0% = untreated control, 100% = no disease
Experimental: Solvent: 24.5 parts by weight of acetone • 24.5 parts by weight of dimethylacetamide
Emulsifier: 1 part by weight of alkylaryl polyglycol ether
To produce a suitable preparation of active compound, 1 part by weight of active compound is mixed with the stated amounts of solvent and emulsifier, and the concentrate is diluted with water to the desired concentration. To test for preventive activity, young plants are sprayed with the preparation of active compound at the stated rate of application. After the spray coating has dried on, the plants are inoculated with an aqueous spore suspension of Plasmopara viticola and then remain for 1 day in an incubation cabinet at approximately 20° C. and a relative atmospheric humidity of 100%. The plant is subsequently placed for 4 days in a greenhouse at approximately 21° C. and a relative atmospheric humidity of approximately 90%. The plants are then misted and placed for 1 day in an incubation cabinet. The test is evaluated 6 days after the inoculation. 0% means an efficacy which corresponds to that of the untreated control, while an efficacy of 100% means that no disease is observed.

[2] = tested on: Phytophthora infestans; assay type: in vivo; details: tomato plants, preventive spray, 500 ppm of active ingredient, evaluated 7 days after inoculation; 0% = untreated control, 100% = no disease
[3] = method [a]: LC-MS at pH 2.7, 0.1% formic acid in water / acetonitrile, linear gradient 10% to 95% acetonitrile
Experimental: Measurement of log P values was performed according EEC directive 79/831 Annex V.A8 by HPLC (High Performance Liquid Chromatography) on reversed phase columns with the following methods:
^[a] measurement of LC-MS was done at pH 2.7 with 0.1% formic acid in water and with acetonitrile (contains 0.1% formic acid) as eluent with a linear gradient from 10% acetonitrile to 95% acetonitrile.

| SMILES | efficacy [1] | LogP (pH 2.7) | efficacy [2] | LogP (pH 7.5) | LogP [3] |
| --- | --- | --- | --- | --- | --- |
| CC(NC(=C(C#N)C(=O)CC1CC1)c1cccnc1Cl)C1(Cl)CC1 (racemic) [Compound 27] | 95% | 3.39^[a] | 93% |  |  |
| CCCC(=O)C(C#N)=C(NC(C)c1ncc(C)s1)c1cccnc1Cl (racemic) [Compound 107] | 100% | 3.19^[a] | 95% |  |  |
| COCC(C)NC(=C(C#N)C(=O)CC1CC1)c1cn(C)nc1C(F)F (stereo not shown) [Compound 2] | 94% | 2.54^[a] | 100% |  |  |
| CC(C)C(C)NC(=C(C#N)C(=O)CC1CC1)c1cn(C)nc1C(F)F (stereo not shown) [Compound 4] | 94% | 3.27^[a] | 95% |  |  |
| CCC(=O)C(C#N)=C(NC(C)C(C)C)c1cccnc1Cl (stereo not shown) [Compound 5] | 93% | 3.11^[a] | 100% | 3.09^[b] |  |
| CC(C)C(C)NC(=C(C#N)C(=O)C1(F)CC1)c1cccnc1Cl (stereo not shown) [Compound 10] |  |  | 95% |  | 3.29^[a] |
| CC(C)C(C)NC(=C(C#N)C(=O)CC1CC1)c1cccnc1Cl (stereo not shown) [Compound 11] | 82% | 3.55^[a] | 100% |  |  |
| CCCCC(=O)C(C#N)=C(NC(C)C(C)C)c1cccnc1Cl (stereo not shown) [Compound 16] |  |  | 95% |  | 4.06^[a] |
| COCC(=O)C(C#N)=C(NC(C)C1CC1)c1cn(C)nc1C(F)F (stereo not shown) [Compound 17] |  |  | 100% |  | 2.15^[a] |
| CCCC(=O)C(C#N)=C(NC(C)C1CC1)c1cn(C)nc1C(F)F (stereo not shown) [Compound 18] | 91% | 3.08^[a] | 95% |  |  |
| CCCC(=O)C(C#N)=C(NC(C)C(C)C)c1cccnc1Cl (stereo not shown) [Compound 20] | 87% | 3.69^[a] | 100% |  |  |
| CCC(=O)C(C#N)=C(NC(C)C(C)C)c1cn(C)nc1C(F)F (stereo not shown) [Compound 23] |  |  | 93% |  | 2.92^[a] |
| CC(C)C(C)NC(=C(C#N)C(=O)c1ccsn1)c1cccnc1Cl (stereo not shown) [Compound 25] |  |  | 75% |  | 2.98^[a] |
| CCCC(=O)C(C#N)=C(NC(C)c1nccs1)c1cccnc1Cl (stereo not shown) [Compound 26] |  |  | 100% |  | 2.61^[a] |
| CC(C)C(C)NC(=C(C#N)C(=O)C1CCOC1)c1cccnc1Cl (stereo not shown) [Compound 28] |  | 2.70^[a] |  |  |  |
| CCCC(=O)C(C#N)=C(NC(C)COC)c1cn(C)nc1C(F)F (stereo not shown) [Compound 30] | 94% | 2.54^[a] | 100% |  |  |
| CCCC(=O)C(C#N)=C(NC(C)C1(Cl)CC1)c1cccnc1Cl (stereo not shown) [Compound 33] | 93% | 3.44^[a] | 90% |  |  |
| CC(C)C(C)NC(=C(C#N)C(=O)C1CCC1)c1cn(C)nc1C(F)F (stereo not shown) [Compound 34] |  |  | 90% |  | 3.46^[a] |
| COCC(=O)C(C#N)=C(NC(C)C1(Cl)CC1)c1cccnc1Cl (stereo not shown) [Compound 36] |  |  | 70% |  | 2.44^[a] |
| CC(C)CC(=O)C(C#N)=C(NC(C)C(C)C)c1cccnc1Cl (stereo not shown) [Compound 40] |  |  | 75% |  | 3.90^[a] |
| CC(C)C(C)NC(=C(C#N)C(=O)C1CCC1)c1cccnc1Cl (stereo not shown) [Compound 44] |  |  | 85% |  | 3.80^[a] |
| CCCCC(=O)C(C#N)=C(NC(C)C1(Cl)CC1)c1cccnc1Cl (stereo not shown) [Compound 47] |  |  | 75% |  | 2.33^[a] |
| CCCC(=O)C(C#N)=C(NC(C)C(C)C)c1cn(C)nc1C(F)F (stereo not shown) [Compound 51] | 100% | 3.29^[a] | 95% |  |  |
| CC(C)C(C)NC(=C(C#N)C(=O)C1CC1)c1cn(C)nc1C(F)F (stereo not shown) [Compound 52] |  |  | 75% |  | 3.11^[a] |
| COCC(=O)C(C#N)=C(NC(C)C(C)C)c1cn(C)nc1C(F)F (stereo not shown) [Compound 56] | 78% | 2.42^[a] | 95% |  |  |

| SMILES | efficacy [1] | LogP (pH 2.7) | efficacy [2] | LogP (pH 7.5) | LogP [3] |
| --- | --- | --- | --- | --- | --- |
| CC(NC(=C(C#N)C(=O)C1CC1)c1cn(C)nc1C(F)F)C1CC1 (stereo not shown) [Compound 59] |  |  | 90% |  | 2.90^[a] |
| COCCC(=O)C(C#N)=C(NC(C)C(C)C)c1cn(C)nc1C(F)F (stereo not shown) [Compound 62] |  |  | 75% |  | 2.64^[a] |
| CC(NC(=C(C#N)C(=O)CC1CC1)c1cn(C)nc1C(F)F)C1CC1 (stereo not shown) [Compound 64] | 94% | 3.04^[a] | 98% |  |  |
| CC(NC(=C(C#N)C(=O)C1CCC1)c1cn(C)nc1C(F)F)C1CC1 (stereo not shown) [Compound 70] |  |  | 80% |  | 3.25^[a] |
| CCC1CC1NC(=C(C#N)C(=O)CC1CC1)c1cccnc1Cl (stereo not shown) [Compound 72] |  |  | 100% |  | 3.46^[a] |
| C=CCCC(=O)C(C#N)=C(NC(C)C(C)C)c1cccnc1Cl (stereo not shown) [Compound 73] |  |  | 80% |  | 3.7^[a] |
| CC=CC(=O)C(C#N)=C(NC(C)C(C)C)c1cccnc1Cl (stereo not shown) [Compound 75] | 88% | 3.35^[a] | 90% |  |  |
| CCCC(=O)C(C#N)=C(NC(C)c1nccs1)c1cn(C)nc1C(F)F (stereo not shown) [Compound 80] | 94% | 2.59^[a] | 95% |  |  |
| CC(NC(=C(C#N)C(=O)CC1CC1)c1cn(C)nc1C(F)F)c1nccs1 (stereo not shown) [Compound 81] | 92% | 2.59^[a] | 95% |  |  |
| CCCC(=O)C(C#N)=C(NC(C)COC)c1cccnc1Cl (stereo not shown) [Compound 83] | 100% |  | 100% |  |  |
| CCCC(=O)C(C#N)=C(NC(C)C(C)(C)C)c1cn(C)nc1C(F)F (stereo not shown) [Compound 84] | 89% | 3.55^[a] | 100% |  |  |
| CCCC(=O)C(C#N)=C(NC(C)c1ccsn1)c1cccnc1Cl (stereo not shown) [Compound 85] | 87% |  | 97% |  |  |
| CCCC(=O)C(C#N)=C(NC(C)COCC)c1cccnc1Cl (stereo not shown) [Compound 86] | 90% |  | 97% |  |  |
| CCCC(=O)C(C#N)=C(NC(C)C(C)(C)C)c1cccnc1Cl (stereo not shown) [Compound 87] | 100% |  | 100% |  |  |
| CCCC(=O)C(C#N)=C(NC(C)c1ccsn1)c1cn(C)nc1C(F)F (stereo not shown) [Compound 88] | 100% | 2.73^[a] | 97% |  |  |
| CCCC(=O)C(C#N)=C(NC(C)C(C)C)c1ccc(Cl)nc1Cl (stereo not shown) [Compound 90] | 96% | 4.31^[a] | 97% |  |  |
| CCCC(=O)C(C#N)=C(NC(C)COC)c1cccnc1C (stereo not shown) [Compound 91] |  |  | 100% |  | 2.14^[a] |
| CCCC(=O)C(C#N)=C(NC(C)COC)c1ccnn1C(F)F (stereo not shown) [Compound 98] | 94% | 2.73^[a] | 100% |  |  |
| CCCC(=O)C(C#N)=C(NC1(CC2CC2)CC1)c1cccnc1Cl [Compound 101] |  |  | 95% |  | 3.79^[a] |
| CCCC(=O)C(C#N)=C(NC1CCC1)c1cccnc1Cl [Compound 102] |  |  | 80% |  | 3.13^[a] |
| CCCC(=O)C(C#N)=C(NC(C)c1c(F)cccc1F)c1cccnc1Cl (stereo not shown) [Compound 106] |  |  | 75% |  | 3.46^[a] |
| CCCC(=O)C(C#N)=C(NC(C)c1c(F)cccc1F)c1cn(C)nc1C(F)F (stereo not shown) [Compound 110] |  |  | 95% |  | 3.46^[a] |
| CCCC(=O)C(C#N)=C(NC1(CC2CC2)CC1)c1cn(C)nc1C(F)F [Compound 119] |  |  | 93% |  | 3.44^[a] |
| CCCC(=O)C(C#N)=C(NC1CCC1)c1cn(C)nc1C(F)F [Compound 120] |  |  | 90% |  | 2.88^[a] |
